We go through 4 molecules from patent EP4678638A1, “NEW E3 UBIQUITIN LIGASE LIGAND, PROTEIN DEGRADATION AGENT AND USE THEREOF” (priority 2023, dated 2024).

Common to all, as to assay type: cell-based
In one assay the test system is MM.1S. The assay is described as follows: CCK-8 proliferation, MM.1S. Particulars: Homo sapiens, MM1.S; CCK-8; 72 hours; read-out: Inhibitory activity (IC50) on tumor cell proliferation, MM1S. A digest of the protocol: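 Tumor cells were cultured at 37°C with 5% CO2, seeded, and after 24h treated with compounds at 10 concentrations starting at 10µM (5-fold serial dilutions).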

The target of the next assay is T1, IKZF3 (Homo sapiens, UniProt Q96SW2+Q9UKT9).
T1 construct: evaluate the effects of the compounds of the present disclosure on the expression of target proteins in cells; endogenous in cells; host or cells: hPBMC
The assay is described as follows: Western blot degradation of IKZF3 (hPBMC). Particulars: Table D16. A digest of the protocol:
(§1)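 After compound exposure, cells were harvested and lysates run on SDS-PAGE, transferred to nitrocellulose and probed with antibodies. Remaining target (%) was computed from band grayscale relative to an internal control protein and normalised; degradation (%) was 100% minus that.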
Background: Immunoblotting shows a protein as a band on a membrane.

In another assay the target is T2, IKZF1 (Homo sapiens, UniProt Q13422+Q96SW2).
T2 construct: evaluate the effects of the compounds of the present disclosure on the expression of target proteins in cells; endogenous in cells; host or cells: hPBMC
T2 sequence (Q13422 whole entry): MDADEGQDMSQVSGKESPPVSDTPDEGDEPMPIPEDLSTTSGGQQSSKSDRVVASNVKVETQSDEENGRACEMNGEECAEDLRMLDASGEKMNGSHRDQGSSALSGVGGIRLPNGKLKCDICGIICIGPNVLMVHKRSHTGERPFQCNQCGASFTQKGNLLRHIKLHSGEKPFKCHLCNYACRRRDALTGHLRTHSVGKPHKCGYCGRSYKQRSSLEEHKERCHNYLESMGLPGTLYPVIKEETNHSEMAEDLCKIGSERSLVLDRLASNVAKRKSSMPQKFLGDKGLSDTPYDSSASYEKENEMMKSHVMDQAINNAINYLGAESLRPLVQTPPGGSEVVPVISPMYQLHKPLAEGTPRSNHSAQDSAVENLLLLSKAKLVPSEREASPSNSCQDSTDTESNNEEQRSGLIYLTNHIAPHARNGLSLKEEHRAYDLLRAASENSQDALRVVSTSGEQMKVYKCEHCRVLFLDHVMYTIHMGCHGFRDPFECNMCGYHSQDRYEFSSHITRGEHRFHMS
T2 sequence (Q96SW2 whole entry): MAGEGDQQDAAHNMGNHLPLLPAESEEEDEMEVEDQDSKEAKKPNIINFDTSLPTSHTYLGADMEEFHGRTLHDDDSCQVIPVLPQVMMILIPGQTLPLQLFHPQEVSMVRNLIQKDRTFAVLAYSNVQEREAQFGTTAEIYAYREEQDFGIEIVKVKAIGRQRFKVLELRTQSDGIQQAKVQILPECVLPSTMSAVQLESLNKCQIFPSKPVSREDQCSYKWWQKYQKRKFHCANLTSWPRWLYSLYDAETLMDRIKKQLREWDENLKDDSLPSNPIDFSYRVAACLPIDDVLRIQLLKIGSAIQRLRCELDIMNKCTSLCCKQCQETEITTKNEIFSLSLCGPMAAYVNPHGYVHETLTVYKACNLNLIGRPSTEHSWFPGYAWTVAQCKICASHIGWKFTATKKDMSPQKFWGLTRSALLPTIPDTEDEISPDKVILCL
T2 sequence (Q16531 whole entry partner): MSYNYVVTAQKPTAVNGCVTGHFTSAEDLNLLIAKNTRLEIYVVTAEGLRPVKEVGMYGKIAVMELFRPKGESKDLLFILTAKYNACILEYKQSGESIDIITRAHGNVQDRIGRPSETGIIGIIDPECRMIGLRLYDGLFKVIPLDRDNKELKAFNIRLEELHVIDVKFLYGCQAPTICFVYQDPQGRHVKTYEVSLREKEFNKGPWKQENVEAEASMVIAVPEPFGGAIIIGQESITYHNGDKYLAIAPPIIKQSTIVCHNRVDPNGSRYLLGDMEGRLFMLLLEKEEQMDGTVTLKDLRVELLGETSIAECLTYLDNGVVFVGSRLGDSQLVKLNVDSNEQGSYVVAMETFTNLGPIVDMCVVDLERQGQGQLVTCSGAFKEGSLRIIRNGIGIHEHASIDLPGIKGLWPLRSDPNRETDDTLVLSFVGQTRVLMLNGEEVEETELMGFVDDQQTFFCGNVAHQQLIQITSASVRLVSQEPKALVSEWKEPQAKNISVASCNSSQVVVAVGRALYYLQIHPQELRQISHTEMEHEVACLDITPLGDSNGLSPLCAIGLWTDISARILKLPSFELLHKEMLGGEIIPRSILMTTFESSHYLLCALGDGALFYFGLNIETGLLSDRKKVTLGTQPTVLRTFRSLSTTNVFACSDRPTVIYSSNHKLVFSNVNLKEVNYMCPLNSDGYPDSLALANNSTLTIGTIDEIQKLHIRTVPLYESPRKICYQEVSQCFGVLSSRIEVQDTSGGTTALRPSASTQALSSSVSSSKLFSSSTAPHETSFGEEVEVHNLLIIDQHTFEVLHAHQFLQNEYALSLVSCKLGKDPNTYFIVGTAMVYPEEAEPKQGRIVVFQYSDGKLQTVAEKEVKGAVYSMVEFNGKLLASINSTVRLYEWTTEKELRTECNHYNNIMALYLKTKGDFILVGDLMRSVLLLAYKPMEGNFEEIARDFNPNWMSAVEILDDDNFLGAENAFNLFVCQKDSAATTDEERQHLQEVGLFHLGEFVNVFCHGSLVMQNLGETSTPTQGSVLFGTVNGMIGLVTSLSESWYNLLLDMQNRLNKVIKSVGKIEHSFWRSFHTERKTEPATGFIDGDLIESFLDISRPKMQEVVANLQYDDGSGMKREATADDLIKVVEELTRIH
The assay is described as follows: Western blot degradation of IKZF1 (hPBMC). Particulars: Table D16. The method, boiled down: as §1

For a further assay, the target named is T3, CK1a (Homo sapiens, UniProt P48729+Q96SW2).
T3 construct: evaluate the effects of the compounds of the present disclosure on the expression of target proteins in cells; endogenous in cells; host or cells: hPBMC
T3 sequence (P48729 whole entry): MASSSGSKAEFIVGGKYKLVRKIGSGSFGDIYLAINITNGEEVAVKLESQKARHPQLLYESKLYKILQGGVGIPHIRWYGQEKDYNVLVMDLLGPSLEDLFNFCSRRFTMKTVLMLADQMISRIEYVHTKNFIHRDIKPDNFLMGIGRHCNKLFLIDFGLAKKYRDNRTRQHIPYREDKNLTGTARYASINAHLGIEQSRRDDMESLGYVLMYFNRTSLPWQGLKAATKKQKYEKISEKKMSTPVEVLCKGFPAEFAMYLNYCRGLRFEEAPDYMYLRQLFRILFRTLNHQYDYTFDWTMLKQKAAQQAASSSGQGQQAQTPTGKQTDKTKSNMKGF
T3 sequence (Q96SW2 whole entry): as the sequence (Q96SW2 whole entry) above
T3 sequence (Q16531 whole entry partner): as the sequence (Q16531 whole entry partner) above
The assay is described as follows: Western blot degradation of CK1a (hPBMC). Particulars: Table D16. A digest of the protocol:
as §1

The target of another assay is T4, WEE1 (Homo sapiens, UniProt P30291+Q96SW2).
T4 construct: evaluate the effects of the compounds of the present disclosure on the expression of target proteins in cells; endogenous in cells; host or cells: hPBMC
T4 sequence (P30291 whole entry): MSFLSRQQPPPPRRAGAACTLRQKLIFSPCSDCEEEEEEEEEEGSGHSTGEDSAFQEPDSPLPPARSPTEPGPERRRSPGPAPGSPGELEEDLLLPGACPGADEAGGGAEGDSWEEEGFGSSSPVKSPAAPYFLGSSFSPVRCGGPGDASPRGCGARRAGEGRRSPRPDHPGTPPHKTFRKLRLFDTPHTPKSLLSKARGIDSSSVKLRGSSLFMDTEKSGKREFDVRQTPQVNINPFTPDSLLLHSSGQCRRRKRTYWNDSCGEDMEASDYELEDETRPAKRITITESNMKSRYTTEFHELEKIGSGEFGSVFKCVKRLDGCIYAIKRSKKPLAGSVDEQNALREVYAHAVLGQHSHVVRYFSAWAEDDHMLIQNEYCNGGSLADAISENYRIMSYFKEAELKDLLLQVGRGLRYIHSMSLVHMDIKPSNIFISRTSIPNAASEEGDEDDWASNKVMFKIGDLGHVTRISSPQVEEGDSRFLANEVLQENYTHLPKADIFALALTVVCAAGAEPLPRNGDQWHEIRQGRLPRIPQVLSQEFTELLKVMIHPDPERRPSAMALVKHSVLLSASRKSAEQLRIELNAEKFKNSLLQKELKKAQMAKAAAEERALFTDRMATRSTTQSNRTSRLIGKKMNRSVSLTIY
T4 sequence (Q96SW2 whole entry): as the sequence (Q96SW2 whole entry) above
T4 sequence (Q16531 whole entry partner): as the sequence (Q16531 whole entry partner) above
The assay is described as follows: Western blot degradation of WEE1 (hPBMC). Particulars: Table D16. A digest of the protocol: as §1

For another assay, the target named is T5, GSPT1 (Homo sapiens, UniProt P15170+Q96SW2).
T5 construct: evaluate the effects of the compounds of the present disclosure on the expression of target proteins in cells; endogenous in cells; host or cells: hPBMC
T5 sequence (P15170 whole entry): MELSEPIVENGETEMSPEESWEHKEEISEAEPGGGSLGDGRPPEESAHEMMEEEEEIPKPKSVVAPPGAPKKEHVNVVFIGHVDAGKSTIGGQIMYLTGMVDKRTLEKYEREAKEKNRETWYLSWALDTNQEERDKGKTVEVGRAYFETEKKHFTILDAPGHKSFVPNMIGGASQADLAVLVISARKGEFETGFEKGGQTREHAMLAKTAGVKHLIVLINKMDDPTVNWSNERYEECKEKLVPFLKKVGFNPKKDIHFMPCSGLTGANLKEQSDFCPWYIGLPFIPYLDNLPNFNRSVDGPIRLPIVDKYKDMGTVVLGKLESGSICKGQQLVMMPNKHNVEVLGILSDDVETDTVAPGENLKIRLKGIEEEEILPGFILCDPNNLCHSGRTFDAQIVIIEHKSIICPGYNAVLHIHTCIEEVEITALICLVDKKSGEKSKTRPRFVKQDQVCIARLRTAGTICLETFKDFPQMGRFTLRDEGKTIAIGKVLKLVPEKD
T5 sequence (Q96SW2 whole entry): as the sequence (Q96SW2 whole entry) above
T5 sequence (Q16531 whole entry partner): as the sequence (Q16531 whole entry partner) above
The assay is described as follows: Western blot degradation of GSPT1 (hPBMC). Particulars: Table D16. The method, boiled down: as §1

The target of the next assay is T6, IKZF2 (Homo sapiens, UniProt Q96SW2+Q9UKS7).
T6 construct: evaluate the effects of the compounds of the present disclosure on the expression of target proteins in cells; endogenous in cells; host or cells: hPBMC
T6 sequence (Q9UKS7 whole entry): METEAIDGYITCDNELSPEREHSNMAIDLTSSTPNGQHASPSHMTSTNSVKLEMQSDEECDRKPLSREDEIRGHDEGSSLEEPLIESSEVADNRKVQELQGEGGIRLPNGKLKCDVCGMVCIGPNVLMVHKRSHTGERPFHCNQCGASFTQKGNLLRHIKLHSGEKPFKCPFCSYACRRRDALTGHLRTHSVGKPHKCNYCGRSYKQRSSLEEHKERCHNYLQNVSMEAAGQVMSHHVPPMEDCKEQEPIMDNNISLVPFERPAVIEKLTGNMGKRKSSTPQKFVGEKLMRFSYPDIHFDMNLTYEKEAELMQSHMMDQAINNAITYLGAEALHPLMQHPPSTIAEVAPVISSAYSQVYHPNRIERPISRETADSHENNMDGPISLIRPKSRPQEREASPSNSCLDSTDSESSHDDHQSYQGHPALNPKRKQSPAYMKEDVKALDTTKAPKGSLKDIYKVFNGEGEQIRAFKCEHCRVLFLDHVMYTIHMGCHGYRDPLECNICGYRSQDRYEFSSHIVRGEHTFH
T6 sequence (Q96SW2 whole entry): as the sequence (Q96SW2 whole entry) above
T6 sequence (Q16531 whole entry partner): as the sequence (Q16531 whole entry partner) above
The assay is described as follows: Western blot degradation of IKZF2 (hPBMC). Particulars: Table D16. A digest of the protocol: as §1

pIC50: −log10 of the molar value.

As for `NCc1cc(N2CCC(=O)NC2=O)ncc1F` [GT-07369, 1-(4-(Aminomethyl)-5-fluoropyridin-2-yl)dihydropyrimidine-2,4(1H,3H)-dione], the pIC50 in the assay with MM.1S is 5.30 to 6.00. In addition, the “Degradation of substrate protein IKZF3 (substrate protein remaining %)” value on IKZF3 is given as “B (B is defined as substrate protein remaining % > 80%)”. At IKZF1, the “Degradation of substrate protein IKZF1 (substrate protein remaining %)” value is reported as “B (B is defined as substrate protein remaining % > 80%)”. Besides, at CK1a, the “Degradation of substrate protein CKla (substrate protein remaining %)” value is “A (A is defined as 0% ≤ substrate protein remaining % ≤ 80%)”. Further, the “Degradation of substrate protein WEE1 (substrate protein remaining %)” value on WEE1 is on record as “B (B is defined as substrate protein remaining % > 80%)”. In addition, on GSPT1, the “Degradation of substrate protein GSPT1 (substrate protein remaining %)” value was “A (A is defined as 0% ≤ substrate protein remaining % ≤ 80%)”. In addition, the “Degradation of substrate protein IKZF2 (substrate protein remaining %)” value on IKZF2 is given as “B (B is defined as substrate protein remaining % > 80%)”.
Regarding `NCc1ccnc(N2CCC(=O)NC2=O)c1` [GT-07198, 1-(4-(Aminomethyl)pyridin-2-yl)dihydropyrimidine-2,4(1H,3H)-dione], the pIC50 in the assay with MM.1S was 5.30 to 6.00. In addition, at IKZF3, the “Degradation of substrate protein IKZF3 (substrate protein remaining %)” value was “A (A is defined as 0% ≤ substrate protein remaining % ≤ 80%)”. In addition, the “Degradation of substrate protein IKZF1 (substrate protein remaining %)” value on IKZF1 was “B (B is defined as substrate protein remaining % > 80%)”. Also, at CK1a, the “Degradation of substrate protein CKla (substrate protein remaining %)” value is reported as “B (B is defined as substrate protein remaining % > 80%)”. In addition, on WEE1, the “Degradation of substrate protein WEE1 (substrate protein remaining %)” value is on record as “B (B is defined as substrate protein remaining % > 80%)”. Further, the “Degradation of substrate protein GSPT1 (substrate protein remaining %)” value at GSPT1 is listed as “B (B is defined as substrate protein remaining % > 80%)”. The “Degradation of substrate protein IKZF2 (substrate protein remaining %)” value at IKZF2 is listed as “B (B is defined as substrate protein remaining % > 80%)”.
Turning to `O=C1CCC(Nc2cncc(CO)c2)C(=O)N1` (stereo not shown) [GT-07448, 3-((5-(Hydroxymethyl)pyridin-3-yl)amino)piperidine-2,6-dione], the pIC50 with MM.1S was 5.30 to 6.00. On IKZF3, the “Degradation of substrate protein IKZF3 (substrate protein remaining %)” value was “A (A is defined as 0% ≤ substrate protein remaining % ≤ 80%)”. Moreover, the “Degradation of substrate protein IKZF1 (substrate protein remaining %)” value at IKZF1 is on record as “A (A is defined as 0% ≤ substrate protein remaining % ≤ 80%)”. Besides, the “Degradation of substrate protein CKla (substrate protein remaining %)” value on CK1a was “A (A is defined as 0% ≤ substrate protein remaining % ≤ 80%)”. Moreover, the “Degradation of substrate protein WEE1 (substrate protein remaining %)” value on WEE1 is “A (A is defined as 0% ≤ substrate protein remaining % ≤ 80%)”. For the same molecule, on GSPT1, the “Degradation of substrate protein GSPT1 (substrate protein remaining %)” value was “A (A is defined as 0% ≤ substrate protein remaining % ≤ 80%)”. The “Degradation of substrate protein IKZF2 (substrate protein remaining %)” value on IKZF2 is given as “A (A is defined as 0% ≤ substrate protein remaining % ≤ 80%)”.
On to `O=Cc1ccnc(NC2CCC(=O)NC2=O)c1` (stereo not shown) [GT-07553, 2-((2,6-Dioxopiperidin-3-yl)amino)isonicotinaldehyde], for which the pIC50 in the assay on MM.1S is 5.30 to 6.00. On IKZF3, the “Degradation of substrate protein IKZF3 (substrate protein remaining %)” value is reported as “B (B is defined as substrate protein remaining % > 80%)”. Further, on IKZF1, the “Degradation of substrate protein IKZF1 (substrate protein remaining %)” value is “A (A is defined as 0% ≤ substrate protein remaining % ≤ 80%)”. Besides, the “Degradation of substrate protein CKla (substrate protein remaining %)” value on CK1a is given as “B (B is defined as substrate protein remaining % > 80%)”. For the same molecule, on WEE1, the “Degradation of substrate protein WEE1 (substrate protein remaining %)” value is on record as “A (A is defined as 0% ≤ substrate protein remaining % ≤ 80%)”. Moreover, the “Degradation of substrate protein GSPT1 (substrate protein remaining %)” value on GSPT1 is “B (B is defined as substrate protein remaining % > 80%)”. Moreover, on IKZF2, the “Degradation of substrate protein IKZF2 (substrate protein remaining %)” value is on record as “A (A is defined as 0% ≤ substrate protein remaining % ≤ 80%)”.
